{"source": "patent US10980765B2", "about": "“Isothiocyanatostilbenes as a novel method and product for treating cancer” (BOARD OF SUPERVISORS OF LOUISIANA STATE UNIVERSITY AND …, priority 2015, dated 2021)", "key": {"[1]": {"molecular_target": "T1, c-Met (Homo sapiens, UniProt P08581)", "T1 sequence (P08581 25-1390)": "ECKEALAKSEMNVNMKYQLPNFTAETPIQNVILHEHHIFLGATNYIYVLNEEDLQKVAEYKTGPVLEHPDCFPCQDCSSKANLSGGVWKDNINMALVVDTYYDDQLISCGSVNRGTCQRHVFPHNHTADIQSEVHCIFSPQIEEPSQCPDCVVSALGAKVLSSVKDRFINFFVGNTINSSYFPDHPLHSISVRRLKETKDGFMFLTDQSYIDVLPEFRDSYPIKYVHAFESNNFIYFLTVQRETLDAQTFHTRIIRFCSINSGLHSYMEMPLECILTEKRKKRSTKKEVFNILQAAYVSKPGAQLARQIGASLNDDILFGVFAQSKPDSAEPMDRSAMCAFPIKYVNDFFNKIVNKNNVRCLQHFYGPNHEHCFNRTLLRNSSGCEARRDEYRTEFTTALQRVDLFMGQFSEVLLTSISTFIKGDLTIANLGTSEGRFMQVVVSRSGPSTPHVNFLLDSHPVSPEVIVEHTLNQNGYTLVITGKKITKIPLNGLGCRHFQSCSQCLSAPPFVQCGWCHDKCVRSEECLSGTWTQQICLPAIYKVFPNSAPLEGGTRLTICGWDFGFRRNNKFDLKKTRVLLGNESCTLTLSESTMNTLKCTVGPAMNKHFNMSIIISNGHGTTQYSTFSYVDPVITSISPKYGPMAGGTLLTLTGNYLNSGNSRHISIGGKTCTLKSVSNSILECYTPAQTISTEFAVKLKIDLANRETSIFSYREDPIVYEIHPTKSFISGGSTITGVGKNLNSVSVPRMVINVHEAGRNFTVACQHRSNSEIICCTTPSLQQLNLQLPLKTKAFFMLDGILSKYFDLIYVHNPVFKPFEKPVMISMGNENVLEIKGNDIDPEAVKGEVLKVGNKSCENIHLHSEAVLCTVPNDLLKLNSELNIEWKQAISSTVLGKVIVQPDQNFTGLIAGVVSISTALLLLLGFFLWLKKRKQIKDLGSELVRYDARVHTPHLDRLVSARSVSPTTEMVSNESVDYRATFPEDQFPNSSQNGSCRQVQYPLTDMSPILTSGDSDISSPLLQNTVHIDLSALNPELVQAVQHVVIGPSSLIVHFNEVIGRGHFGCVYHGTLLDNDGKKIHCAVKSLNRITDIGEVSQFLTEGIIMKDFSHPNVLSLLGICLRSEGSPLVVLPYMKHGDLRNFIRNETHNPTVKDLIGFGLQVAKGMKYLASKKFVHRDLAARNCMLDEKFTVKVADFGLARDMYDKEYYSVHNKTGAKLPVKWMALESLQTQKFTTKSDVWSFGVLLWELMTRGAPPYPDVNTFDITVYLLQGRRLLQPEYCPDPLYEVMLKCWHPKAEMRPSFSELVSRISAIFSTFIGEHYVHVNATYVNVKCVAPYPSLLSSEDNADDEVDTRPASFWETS", "experiment": "Western blot of c-Met activation (phospho-c-Met) by HGF in cancer cell lines", "format": "cell-based", "design": "endogenous in cells; host or cells: DU145, PC3, MDA-MB-231, HCC1806", "protocol": "(§1) Western blot was used to analyze pMet expression. […] Western blot was used to analyze the indicated proteins.\n(§2) Western blot was used to analyze the indicated proteins.\nas §2\n(§3) Western blot analysis: Cells were grown to ˜70% confluency prior to treatment. Cells were serum-starved in serum-free media for 30 minutes prior to treatment in complete media or serum-free media for the indicated times. Cell lysates were collected in Laemmli (125 mM Tris, 4% SDS, 0.01% bromophenol blue, 30% sucrose) containing 0.5% β-mercaptoethanol and boiled ˜8 minutes. Primary antibodies include: phospho-c-Met (Y1234/1235), phospho-Akt (S473), pEGFR […], pIGF-IRβ (Y1135/1136) (Cell Signaling Technology; Beverly, Mass.); α-actin (Sigma-Aldrich), c-Met (C-28) (Life Technologies). Secondary antibodies include: horseradish peroxidase-conjugated anti-rabbit and anti-mouse (GE Healthcare; Pittsburgh, Pa.). ECL 2 was used for chemiluminescent detection (Thermo Scientific; Rockford, Ill.). Densitometry was calculated using ImageJ (NIH)."}, "[2]": {"molecular_target": "wild-type c-Met (Homo sapiens, UniProt P08581)", "sequence (P08581 25-1390)": "as above", "experiment": "Phosphorylation inhibition assay (Z′-LYTE Kinase Assay-Tyr6 Peptide), wild-type c-Met", "format": "biochemical", "protocol": "as §1\nPhosphorylation inhibition assay: Z′-LYTE™ Kinase Assay-Tyr6 Peptide kit (Invitrogen) was used to assess the ability of tested compounds to inhibit c-Met phosphorylation. […] After 1 hour incubation at room temperature, 10 μl development solution containing site-specific protease was added to each well. Incubation was continued for 1 hour. The reaction was then stopped, and the fluorescent signal ratio of 445 nm (coumarin)/520 nm (fluorescein) was determined on a plate reader (BioTek FLx800™), which reflects the peptide substrate cleavage status and/or the kinase inhibitory activity in the reaction. […] The IC50 value for each compound was calculated by nonlinear regression of log concentration versus % c-Met phosphorylation ±S.E.M., implemented in GraphPad Prism version 5.0 (GraphPad Software, CA, USA)."}, "[3]": {"molecular_target": "T1, c-Met", "experiment": "Western blot of pMet in c-Met amplified H1993 lung cancer cells without HGF", "format": "cell-based", "design": "endogenous in cells", "conditions": "5 μM compound; no HGF, constitutive c-Met activation", "protocol": "as §1\nH1993 cells have c-Met amplification such that they have high levels of pMet, even in the absence of HGF, due to constitutive c-Met dimerization and autophosphorylation.\nas §3"}, "[4]": {"molecular_target": "T2, IGFR (Homo sapiens, UniProt P08069)", "T2 construct": "endogenous in cells; host or cells: DU145", "experiment": "Western blot of IGFR activation by IGF in DU145 cells", "format": "cell-based", "conditions": "4 μM DIDS or 25 μM H2DIDS; DU145, 100 ng/ml IGF 20 min", "protocol": "as §3"}, "[5]": {"molecular_target": "T3, EGFR (Homo sapiens, UniProt P00533)", "T3 construct": "endogenous in cells; host or cells: DU145", "T3 sequence (P00533 25-1210)": "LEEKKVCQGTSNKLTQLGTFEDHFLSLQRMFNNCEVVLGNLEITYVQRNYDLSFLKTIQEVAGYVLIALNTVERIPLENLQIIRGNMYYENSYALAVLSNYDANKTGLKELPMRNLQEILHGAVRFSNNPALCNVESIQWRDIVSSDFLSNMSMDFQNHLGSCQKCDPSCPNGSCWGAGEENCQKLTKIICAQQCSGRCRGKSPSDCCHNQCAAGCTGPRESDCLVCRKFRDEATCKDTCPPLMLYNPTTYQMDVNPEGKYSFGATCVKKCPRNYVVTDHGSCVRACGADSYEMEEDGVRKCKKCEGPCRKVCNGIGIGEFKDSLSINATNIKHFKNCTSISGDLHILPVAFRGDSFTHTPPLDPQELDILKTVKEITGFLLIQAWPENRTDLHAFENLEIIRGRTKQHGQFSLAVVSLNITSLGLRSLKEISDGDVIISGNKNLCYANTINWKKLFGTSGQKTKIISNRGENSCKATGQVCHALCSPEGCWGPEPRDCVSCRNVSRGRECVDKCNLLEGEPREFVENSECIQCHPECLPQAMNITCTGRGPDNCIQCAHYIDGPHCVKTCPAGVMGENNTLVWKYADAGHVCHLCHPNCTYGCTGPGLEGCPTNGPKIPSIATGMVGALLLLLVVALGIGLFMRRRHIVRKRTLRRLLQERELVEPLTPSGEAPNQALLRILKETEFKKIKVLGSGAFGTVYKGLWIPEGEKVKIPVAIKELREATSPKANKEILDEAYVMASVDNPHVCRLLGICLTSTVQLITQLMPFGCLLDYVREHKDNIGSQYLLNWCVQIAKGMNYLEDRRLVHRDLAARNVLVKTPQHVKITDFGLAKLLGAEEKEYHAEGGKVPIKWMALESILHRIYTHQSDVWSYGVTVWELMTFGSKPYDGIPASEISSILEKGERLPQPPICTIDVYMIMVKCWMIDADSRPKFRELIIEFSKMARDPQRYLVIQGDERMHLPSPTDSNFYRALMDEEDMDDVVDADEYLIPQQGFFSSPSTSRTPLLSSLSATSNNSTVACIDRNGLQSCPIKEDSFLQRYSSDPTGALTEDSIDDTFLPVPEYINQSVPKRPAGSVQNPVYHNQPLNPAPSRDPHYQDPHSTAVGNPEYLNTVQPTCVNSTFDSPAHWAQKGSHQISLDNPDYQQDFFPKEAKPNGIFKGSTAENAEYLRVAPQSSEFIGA", "experiment": "Western blot of EGFR activation by EGF in DU145 cells", "format": "cell-based", "conditions": "4 μM DIDS or 25 μM H2DIDS; DU145, 100 ng/ml EGF 20 min", "protocol": "as §3"}, "[6]": {"tested_on": "DU145 cells", "experiment": "Wound healing", "format": "cell-based", "protocol": "(§4) Cells were fixed and stained for actin. Representative images are shown. […] Data are shown as mean±S.E.M.; n=3.\n(§5) For invasion (FIGS. 4C and 4D), wounded cells were overlaid with Matrigel diluted 1:5 in serum-free media; n=3.\n(§6) Wound healing and invasion: DU145 cells were grown to ˜100% confluency prior to wounding with the IncuCyte™ WoundMaker™ (Essen Bioscience; Ann Arbor, Mich.) and washed once with complete media. For invasion, cells were covered with Matrigel diluted 1:5 in serum-free RPMI following wounding. […] Images were taken every 4 hours with the IncuCyte™ ZOOM imaging system (Essen Bioscience). Quadruplicate replicates were used in each experiment. Data are presented as percent wound density ±standard error of the mean (S.E.M.)."}, "[7]": {"tested_on": "Cells", "experiment": "2D proliferation (Cell Titer Blue)", "format": "cell-based", "conditions": "24-72 hours", "protocol": "A TO timepoint was also measured. For each timepoint, cells were exposed to Cell Titer Blue reagent (Promega) for 1 hour at 37° C. 5% CO2. Experiments were performed with quadruplicate replicates. Fluorescence was measured using a BioTek Synergy 4 plate reader with Gen5 software."}, "[8]": {"tested_on": "DU145 cells", "experiment": "Scattering assay", "format": "cell-based", "conditions": "4 μM DIDS or 25 μM H2DIDS", "protocol": "as §4\nCells were fixed and stained for actin. Representative images are shown.\nScattering assay: DU145 cells were grown to ˜50% confluency. […] Cells were fixed with 4% paraformaldehyde and stained with Oregon Green 488 phalloidin (Invitrogen; Carlsbad, Calif.). Images were acquired on an Eclipse TE300 inverted microscope (Nikon; Tokyo, Japan) with NIS Elements version 4.13.04 software. Presented images were taken using a 10× objective."}, "[9]": {"tested_on": "DU145 cells", "experiment": "Invasion through Matrigel", "format": "cell-based", "conditions": "indicated concentrations; 33 ng/mL HGF; Matrigel 1:5", "protocol": "as §5, §6"}, "[10]": {"tested_on": "DU145 spheroids", "experiment": "3D spheroid proliferation", "format": "cell-based", "conditions": "33 ng/mL HGF, Matrigel, 72 hours", "protocol": "Data are shown as the percent change in growth from T=0 to T=72 hours. For each of the six independent variables in each bar graph, a representative image at the 72 hour time point is shown. The six corresponding images below each respective bar graph\n3D spheroid proliferation: Prior to seeding, cells were incubated with 2.5 ng/μl CellTracker Red (Life Technologies) in complete DMEM lacking Phenol Red for 5 minutes at room temperature then centrifuged at 1000 RPM for 5 minutes. […] The mixture of cells, treatments, and Matrigel in complete media was seeded at 2000 cells/well in a 96 well plate. The plate was centrifuged at 1000 RPM for 3 minutes to collect the cells into the bottom of the plate. Spheroid growth was imaged for up to 80 hours and analyzed for average red object area using the IncuCyte™ ZOOM software. Data are shown as percent change in spheroid growth between TO and […] with HGF normalized to 100% change in growth. Images were captured by the IncuCyte™ ZOOM imaging system and representative 10× images are shown."}}, "data": [{"smiles": "CC(=O)Nc1ccc(C=Cc2ccc(N=C=S)cc2S(=O)(=O)O)c(S(=O)(=O)O)c1", "note": "[SITS, 4-acetamido-4′-isothiocyanatostilbene-2,2′-disulfonic acid]", "values": [{"measurement": "inhibition at 250 µM", "setting": "[1]; DU-145, 250 μM compound, DU145 cells, 33 ng/ml HGF 20 min, serum-free", "result": "~90", "unit": "%"}]}, {"smiles": "Cc1[nH]c(/C=C2\\C(=O)Nc3ccc(S(=O)(=O)N(C)c4cccc(Cl)c4)cc32)c(C)c1C(=O)N1CCN(C)CC1", "note": "[SU11274, reference compound]", "values": [{"measurement": "reduction of c-Met phosphorylation", "setting": "[2]; 500 nM compound, kinase assay", "result": "~70", "unit": "%"}, {"measurement": "pMet levels in H1993 cells", "setting": "[3]", "result": "ameliorated pMet levels"}]}, {"smiles": "O=S(=O)(O)c1cc(N=C=S)ccc1CCc1ccc(N=C=S)cc1S(=O)(=O)O", "note": "[H2DIDS, 4,4′-Diisothiocyanatodihydrostilbene-2,2′-disulfonic acid]", "values": [{"measurement": "IC50, wild-type c-Met", "setting": "[2]; cell-free kinase assay, 200 μM ATP", "result": "low micromolar range"}, {"measurement": "IC50", "setting": "[2]; cell-free kinase assay, 200 μM ATP, read-out: IC50, wild-type c-Met", "result": 3.6, "unit": "µM"}, {"measurement": "IGFR activation", "setting": "[4]", "result": "do not significantly reduce"}, {"measurement": "EGFR activation", "setting": "[5]", "result": "do not significantly reduce"}, {"measurement": "pMet levels in H1993 cells", "setting": "[3]", "result": "much less significant effects"}, {"measurement": "HGF-induced wound healing", "setting": "[6]; 4 μM DIDS or 25 μM H2DIDS, 33 ng/ml HGF", "result": "significantly reduced"}, {"measurement": "EGF-mediated wound healing", "setting": "[6]; 4 μM DIDS or 25 μM H2DIDS, 100 ng/ml EGF", "result": "minimal effects"}, {"measurement": "HGF-induced wound healing, dose response", "setting": "[6]; indicated concentrations, 33 ng/mL HGF", "result": "reduce HGF-induced wound healing in a dose response manner"}, {"measurement": "reduction of c-Met activation", "setting": "[1]; 8 μM compound, DU145 cells, 33 ng/ml HGF 20 min, serum-free, Western blot densitometry", "result": "~90", "unit": "%"}, {"measurement": "effective concentrations for reducing c-Met activation in 10% FBS", "setting": "[1]; DU145 cells, 33 ng/ml HGF 20 min, 10% FBS RPMI, compared with serum-free", "result": "slightly higher effective concentrations"}, {"measurement": "c-Met inhibitory effective doses", "setting": "[1]; multiple cancer cell lines (summary)", "result": "low micromolar range"}, {"measurement": "proliferation in complete media in 2D assay", "setting": "[7]; complete media", "result": "minimal effects"}, {"measurement": "serum-free proliferation in 2D assay", "setting": "[7]; serum-free media", "result": "minimal effects"}, {"measurement": "HGF-induced cell scattering", "setting": "[8]; 33 ng/ml HGF overnight", "result": "able to reduce HGF-induced"}, {"measurement": "EGF-induced cell scattering", "setting": "[8]; 100 ng/ml EGF overnight", "result": "not EGF-induced"}, {"measurement": "HGF-induced invasion through Matrigel", "setting": "[9]", "result": "inhibited HGF-induced invasion through Matrigel in a dose-dependent manner"}, {"measurement": "lowest concentration with some inhibitory effects on HGF-induced spheroid growth", "setting": "[10]", "result": 40, "unit": "nM"}, {"measurement": "decrease of HGF-induced DU145 spheroid growth", "setting": "[10]; 5 μM compound", "result": "~60", "unit": "%"}]}, {"smiles": "O=[N+]([O-])c1ccc(C=Cc2ccc([N+](=O)[O-])cc2S(=O)(=O)O)c(S(=O)(=O)O)c1", "note": "[DNDS, 4,4′-dinitrostilbene-2,2′-disulfonic acid]", "values": [{"measurement": "inhibition at 2000 µM", "setting": "[1]; DU-145, read-out: inhibition of c-Met", "result": "~90", "unit": "%"}]}]}
